The source made the active and inactive calls. The rule behind the calls is not given here. *1 amine or outer side, *2 acyl side, *3 side chain or, on linkers, in order; H or OH if unused. Where a SMILES comes first, the peptide text is derived from it. Bridges are numbered along the chain shown (N, C = ends). Roman numbers before positions name the chains, in order. [ ]: non-standard residue; d: D form. Actinocin(1to9) = Cc1c2oc3c(C)ccc(C(=O)[*:2])c3nc-2c(C(=O)[*:1])c(N)c1=O; NMeV = CN[C@H](C(=O)O)C(C)C; Sar = CNCC(=O)O
Columns and labels:
[1] = test system: HeLa; assay: Antiproliferative activity against human HeLa cells by MTT assay; type: functional, cell-based
[2] = test system: C8166; assay: Antiproliferative activity against human C8166 cell line by MTT assay; type: functional, cell-based
[3] = test system: G-361; assay: Antiproliferative activity against human G361 cell line by MTT assay; type: functional, cell-based
[4] = test system: HEp-2; assay: Antiproliferative activity against human Hep2 cell line by MTT assay; type: functional, cell-based
[5] = test system: KB; assay: Antiproliferative activity against human KB cell line by MTT assay; type: functional, cell-based
[6] = test system: 5637; assay: Antiproliferative activity against human 5637 cell line by MTT assay; type: functional, cell-based
[7] = test system: MOLT-4; assay: Antiproliferative activity against human MOLT4 cell line by MTT assay; type: functional, cell-based
[8] = test system: CCRF-SB; assay: Antiproliferative activity against human CCRF-SB cell line by MTT assay; type: functional, cell-based
[9] = test system: ACHN; assay: Antiproliferative activity against human ACHN cell line by MTT assay; type: functional, cell-based
[10] = test system: MT4; assay: Antiproliferative activity against human MT4 cell line by MTT assay; type: functional, cell-based
[11] = test system: CCRF-CEM; assay: Antiproliferative activity against human CCRF-CEM cell line by MTT assay; type: functional, cell-based
[12] = test system: HT-29; assay: Antiproliferative activity against human HT29 cell line by MTT assay; type: functional, cell-based
[13] = test system: WIL2-NS; assay: Antiproliferative activity against human Wil2-NS cells by MTT assay; type: functional, cell-based
[14] = molecular target: DNA topoisomerase II (Homo sapiens) (UniProt P11388+Q02880); assay: Promotion of human topoisomerase 2-mediated DNA cleavage; type: protein assay
[15] = test system: HT-29; assay: Cell cycle arrest in HT29 cells by accumulation at S phase by flow cytometry at […]; type: functional, Homo sapiens
[16] = test system: HT-29; assay: Cell cycle arrest in HT29 cells by accumulation at G2/M phase by flow cytometry at […]; type: functional, Homo sapiens
[17] = molecular target: T1, DNA topoisomerase 1 (Homo sapiens) (UniProt P11387); assay: Promotion of human topoisomerase 1-mediated DNA cleavage
T1 sequence (whole entry): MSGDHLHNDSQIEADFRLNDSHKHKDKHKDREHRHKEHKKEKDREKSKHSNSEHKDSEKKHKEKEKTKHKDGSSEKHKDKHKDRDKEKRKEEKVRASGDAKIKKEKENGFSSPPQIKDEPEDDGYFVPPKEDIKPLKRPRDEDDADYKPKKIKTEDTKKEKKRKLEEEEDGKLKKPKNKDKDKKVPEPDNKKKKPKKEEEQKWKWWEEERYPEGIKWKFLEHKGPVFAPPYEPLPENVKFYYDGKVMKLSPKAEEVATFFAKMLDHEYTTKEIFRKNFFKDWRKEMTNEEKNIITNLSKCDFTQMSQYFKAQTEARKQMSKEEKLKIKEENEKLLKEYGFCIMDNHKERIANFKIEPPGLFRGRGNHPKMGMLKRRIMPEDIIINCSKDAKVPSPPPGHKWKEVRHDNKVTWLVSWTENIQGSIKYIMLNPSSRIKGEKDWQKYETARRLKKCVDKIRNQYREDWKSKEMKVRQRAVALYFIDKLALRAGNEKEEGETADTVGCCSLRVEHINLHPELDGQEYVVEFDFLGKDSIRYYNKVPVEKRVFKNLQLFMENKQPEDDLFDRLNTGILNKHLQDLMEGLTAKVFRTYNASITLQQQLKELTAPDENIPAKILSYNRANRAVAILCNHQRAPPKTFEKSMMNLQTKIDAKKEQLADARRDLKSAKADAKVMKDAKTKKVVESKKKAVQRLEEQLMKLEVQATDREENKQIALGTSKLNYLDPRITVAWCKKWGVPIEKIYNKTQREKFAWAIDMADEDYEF

[18] = test system: HT-29; assay: Cell cycle arrest in HT29 cells by accumulation at G0/G1 phase by flow cytometry at […]; type: functional, Homo sapiens
[19] = molecular target: T1, DNA topoisomerase 1 (Homo sapiens); assay: Unwinding of DNA mediated by topoisomerase 1 at 20 uM

| IC50 [1] | IC50 [5] | IC50 [7] | IC50 [8] | IC50 [9] | IC50 [11] | IC50 [12] | Activity [14] | Activity [17] | Activity [19] | SMILES | IC50 [2] | IC50 [3] | IC50 [4] | IC50 [6] | IC50 [10] | IC50 [13] | Activity [15] | Activity [16] | Activity [18] |
| --- | --- | --- | --- | --- | --- | --- | --- | --- | --- | --- | --- | --- | --- | --- | --- | --- | --- | --- | --- |
| 2500 nM | 1000 nM | 1900 nM | 1400 nM | 1900 nM | 1900 nM | 2100 nM |  |  |  | O=c1cc2oc3c4c(ccc3nc-2c2cccnc12)CCCC4 | 1000 nM | 2000 nM | 1800 nM | 1100 nM | 1500 nM | 2100 nM |  |  |  |
| 1700 nM | 1200 nM | 1200 nM | 300 nM | 900 nM | 150 nM | 1600 nM |  |  |  | Cc1cc(C)c2oc3cc(=O)c4ncccc4c-3nc2c1 | 500 nM | 1500 nM | 1100 nM | 600 nM | 100 nM | 900 nM |  |  |  |
| 1100 nM | 1000 nM | 1800 nM | 2000 nM | 1400 nM | 1100 nM | 3300 nM |  |  |  | O=c1cc2oc3cc4c(cc3nc-2c2cccnc12)CCCC4 | 1000 nM | 1500 nM | 1700 nM | 1000 nM | 1500 nM | 1200 nM |  |  |  |
|  | 150 nM |  |  | 1 nM |  |  |  |  |  | COc1cccc2c1C(=O)c1c(O)c3c(c(O)c1C2=O)C[C@@](O)(C(=O)CO)C[C@@H]3O[C@H]1C[C@H](N)[C@H](O)[C@H](C)O1 [DOXORUBICIN] |  |  |  |  |  |  |  |  |  |
| 600 nM | 400 nM | 3000 nM | 100 nM | 5 nM | 6000 nM | 6900 nM |  |  |  | Cc1ccc2nc3c4cccnc4c(=O)cc-3oc2c1C | 500 nM | 30 nM | 400 nM | 1800 nM | 300 nM | 1800 nM |  |  |  |
|  | 1 nM |  |  |  |  |  |  |  |  | Cc1c2oc3c(C)ccc(C(=O)N[C@@H]4C(=O)N[C@H](C(C)C)C(=O)N5CCC[C@H]5C(=O)N(C)CC(=O)N(C)[C@@H](C(C)C)C(=O)O[C@@H]4C)c3nc-2c(C(=O)N[C@@H]2C(=O)N[C@H](C(C)C)C(=O)N3CCC[C@H]3C(=O)N(C)CC(=O)N(C)[C@@H](C(C)C)C(=O)O[C@@H]2C)c(N)c1=O [DACTINOMYCIN] (I: T[dV]P[Sar][NMeV] / II: T[dV]P[Sar][NMeV]; ester I:1-I:C, II:1-II:C; linker I:N-II:N via Actinocin(1to9)) |  |  |  |  |  |  |  |  |  |
| 200 nM | 100 nM | 90 nM | 20 nM | 500 nM | 50 nM | 300 nM | inactive | inactive |  | O=c1cc2oc3c(ccc4ccccc43)nc-2c2cccnc12 | 100 nM | 50 nM | 60 nM | 100 nM | 100 nM | 60 nM | 43.88% | 38.49% | 17.63% |
| 800 nM | 90 nM | 300 nM | 40 nM | 400 nM | 150 nM | 30 nM |  |  |  | Cc1cc2nc3c4cccnc4c(=O)cc-3oc2cc1C | 40 nM | 900 nM | 800 nM | 800 nM | 100 nM | 400 nM |  |  |  |
| 900 nM | 500 nM | 1600 nM | 400 nM | 500 nM | 700 nM | 5500 nM |  |  |  | Cc1ccc(C)c2oc3cc(=O)c4ncccc4c-3nc12 | 8000 nM | 700 nM | 400 nM | 10 nM | 80 nM | 1100 nM |  |  |  |
| 200 nM | 300 nM | 500 nM | 20 nM | 1 nM | 100 nM | 200 nM |  |  |  | Cc1cc(C)c2nc3c4cccnc4c(=O)cc-3oc2c1 | 200 nM | 1 nM | 300 nM | 5 nM | 40 nM | 70 nM |  |  |  |
| 1600 nM | 1700 nM | 3200 nM | 1000 nM | 1800 nM | 1300 nM | 1000 nM |  |  |  | O=c1cc2oc3ccc4c(c3nc-2c2cccnc12)CCCC4 | 2000 nM | 1300 nM | 1900 nM | 1900 nM | 1300 nM | 4000 nM |  |  |  |
| 50 nM | 20 nM | 10 nM | 10 nM | 20 nM | 4 nM | 30 nM | inactive | inactive |  | O=c1cc2oc3cc4ccccc4cc3nc-2c2cccnc12 | 20 nM | 10 nM | 50 nM | 20 nM | 50 nM | 10 nM | 20.93% | 55.01% | 24.06% |
| 1 nM | 10 nM | 40 nM | 10 nM | 10 nM | 1 nM | 2 nM | inactive | inactive | Active | O=c1cc2oc3ccc4ccccc4c3nc-2c2cccnc12 | 1 nM | 20 nM | 40 nM | 10 nM | 10 nM | 5 nM | 23.42% | 48.66% | 27.93% |
|  | 100 nM |  | 10 nM |  |  | 200 nM |  |  |  | O=c1cc2oc3ccccc3nc-2c2cccnc12 |  |  |  |  | 20 nM |  |  |  |  |
| 2600 nM | 700 nM | 2700 nM | 1200 nM | 1800 nM | 200 nM | 1200 nM |  |  |  | Cc1ccc2oc3cc(=O)c4ncccc4c-3nc2c1C | 1100 nM | 1300 nM | 1300 nM | 900 nM | 300 nM | 2000 nM |  |  |  |
